Results: EP1025114B1, “3'-N-MODIFIED 6-O-SUBSTITUTED ERYTHROMYCIN KETOLIDE DERIVATIVES HAVING ANTIBACTERIAL ACTIVITY” (priority 1997, dated 1999)

Legend:
Experiment in all cases: In vitro antibacterial activity, agar dilution MIC
Format in all cases: cell-based
Candida albicans CCH 442 = Candida albicans CCH 442 (organism code TT); BHI agar, 35-37 °C, 20 to 24 hours; unit assumed
Summary of the method: (§1)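 Agar dilution method in BHI medium with twelve graded concentrations; slow-growing organisms such as Streptococcus were inoculated at 1:10, others at 1:100. Endpoint: lowest concentration showing no growth, slight haze or sparsely isolated colonies versus the compound-free plate.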

[1] = tested on: Enterococcus faecium ATCC 8043; settings: Enterococcus faecium ATCC 8043 (organism code II); BHI agar, 35-37 °C, 20 to 24 hours; unit assumed
Summary of the method: as §1

Escherichia coli DC-2 = Escherichia coli DC-2 (organism code SS); BHI agar, 35-37 °C, 20 to 24 hours; unit assumed
Summary of the method: as §1

Escherichia coli JUHL = Escherichia coli JUHL (organism code QQ); BHI agar, 35-37 °C, 20 to 24 hours; unit assumed
Summary of the method: as §1

Escherichia coli SS = Escherichia coli SS (organism code RR); BHI agar, 35-37 °C, 20 to 24 hours; unit assumed
Summary of the method: as §1

[2] = tested on: Haemophilis Influenzae DILL AMP R; settings: Haemophilis Influenzae DILL AMP R (organism code WW); BHI agar, 35-37 °C, 20 to 24 hours; unit assumed
Summary of the method: as §1

[3] = tested on: Micrococcus luteus ATCC 4698; settings: Micrococcus luteus ATCC 4698 (organism code PP); BHI agar, 35-37 °C, 20 to 24 hours; unit assumed
Summary of the method: as §1

[4] = tested on: Micrococcus luteus ATCC 9341; settings: Micrococcus luteus ATCC 9341 (organism code OO); BHI agar, 35-37 °C, 20 to 24 hours; unit assumed
Summary of the method: as §1

[5] = tested on: Mycobacterium smegmatis ATCC 114; settings: Mycobacterium smegmatis ATCC 114 (organism code UU); BHI agar, 35-37 °C, 20 to 24 hours; unit assumed
Summary of the method: as §1

[6] = tested on: Nocardia Asteroides ATCC9970; settings: Nocardia Asteroides ATCC9970 (organism code VV); BHI agar, 35-37 °C, 20 to 24 hours; unit assumed
Summary of the method: as §1

[7] = tested on: Staphylococcus aureus 1775; settings: Staphylococcus aureus 1775 (organism code GG); BHI agar, 35-37 °C, 20 to 24 hours; unit assumed
Summary of the method: as §1

[8] = tested on: Staphylococcus aureus A-5278; settings: Staphylococcus aureus A-5278 (organism code CC); BHI agar, 35-37 °C, 20 to 24 hours; unit assumed
Summary of the method: as §1

[9] = tested on: Staphylococcus aureus A5177; settings: Staphylococcus aureus A5177 (organism code BB); BHI agar, 35-37 °C, 20 to 24 hours; unit assumed
Summary of the method: as §1

[10] = tested on: Staphylococcus aureus ATCC 6538P; settings: Staphylococcus aureus ATCC 6538P (organism code AA); BHI agar, 35-37 °C, 20 to 24 hours; unit assumed
Summary of the method: as §1

[11] = tested on: Staphylococcus aureus CMX 553; settings: Staphylococcus aureus CMX 553 (organism code FF); BHI agar, 35-37 °C, 20 to 24 hours; unit assumed
Summary of the method: as §1

[12] = tested on: Staphylococcus aureus CMX 642A; settings: Staphylococcus aureus CMX 642A (organism code DD); BHI agar, 35-37 °C, 20 to 24 hours; unit assumed
Summary of the method: as §1

[13] = tested on: Staphylococcus aureus NCTC10649M; settings: Staphylococcus aureus NCTC10649M (organism code EE); BHI agar, 35-37 °C, 20 to 24 hours; unit assumed
Summary of the method: as §1

[14] = tested on: Staphylococcus epidermidis 3519; settings: Staphylococcus epidermidis 3519 (organism code HH); BHI agar, 35-37 °C, 20 to 24 hours; unit assumed
Summary of the method: as §1

[15] = tested on: Streptococcus Pheumoniae 5649; settings: Streptococcus Pheumoniae 5649 (organism code ZZA); BHI agar, 35-37 °C, 20 to 24 hours; unit assumed
Summary of the method: as §1

[16] = tested on: Streptococcus Pheumoniae 5979; settings: Streptococcus Pheumoniae 5979 (organism code ZZ); BHI agar, 35-37 °C, 20 to 24 hours; unit assumed
Summary of the method: as §1

[17] = tested on: Streptococcus Pheumoniae ATCC6303; settings: Streptococcus Pheumoniae ATCC6303 (organism code XX); BHI agar, 35-37 °C, 20 to 24 hours; unit assumed
Summary of the method: as §1

[18] = tested on: Streptococcus Pheumoniae GYR 1171; settings: Streptococcus Pheumoniae GYR 1171 (organism code YY); BHI agar, 35-37 °C, 20 to 24 hours; unit assumed
Summary of the method: as §1

[19] = tested on: Streptococcus agalactiae CMX 508; settings: Streptococcus agalactiae CMX 508 (organism code KK); BHI agar, 35-37 °C, 20 to 24 hours; unit assumed
Summary of the method: as §1

[20] = tested on: Streptococcus bovis A-5169; settings: Streptococcus bovis A-5169 (organism code JJ); BHI agar, 35-37 °C, 20 to 24 hours; unit assumed
Summary of the method: as §1

[21] = tested on: Streptococcus pyogenes 930; settings: Streptococcus pyogenes 930 (organism code MM); BHI agar, 35-37 °C, 20 to 24 hours; unit assumed
Summary of the method: as §1

[22] = tested on: Streptococcus pyogenes EES61; settings: Streptococcus pyogenes EES61 (organism code LL); BHI agar, 35-37 °C, 20 to 24 hours; unit assumed
Summary of the method: as §1

[23] = tested on: Streptococcus pyogenes PIU 2548; settings: Streptococcus pyogenes PIU 2548 (organism code NN); BHI agar, 35-37 °C, 20 to 24 hours; unit assumed
Summary of the method: as §1

Compound	MIC (Candida albicans CCH 442) [µg/mL]	MIC [1] [µg/mL]	MIC (Escherichia coli DC-2) [µg/mL]	MIC (Escherichia coli JUHL) [µg/mL]	MIC (Escherichia coli SS) [µg/mL]	MIC [2] [µg/mL]	MIC [3] [µg/mL]	MIC [4] [µg/mL]	MIC [5] [µg/mL]	MIC [6] [µg/mL]	MIC [7] [µg/mL]	MIC [8] [µg/mL]	MIC [9] [µg/mL]	MIC [10] [µg/mL]	MIC [11] [µg/mL]	MIC [12] [µg/mL]	MIC [13] [µg/mL]	MIC [14] [µg/mL]	MIC [15] [µg/mL]	MIC [16] [µg/mL]	further results
C=CCN(C)[C@H]1C[C@@H](C)O[C@@H](O[C@@H]2[C@@H](C)C(=O)[C@@H](C)C(=O)O[C@H](CC)[C@@]3(C)OC(=O)N[C@@H]3[C@@H](C)C(=O)[C@H](C)C[C@@]2(C)OCC=Cc2cnc3ccccc3c2)[C@@H]1O [Example 6, Compound of Formula (II); R is -CH2CH=CH-(3-quinolyl), R^p is H, W is absent, R^w is H, R^1 is CH2CH=CH2, R^2 is CH3]	> 100	0.05	100	50	0.2	4	0.2	0.02	0.2	0.1	> 100	> 100	0.05	0.05	0.05	0.1	0.05	0.2	0.25	16	MIC [17]: ≤ 0.004 µg/mL; MIC [18]: ≤ 0.004 µg/mL; MIC [19]: 0.05 µg/mL; MIC [20]: 0.02 µg/mL; MIC [21]: 3.1 µg/mL; MIC [22]: 0.02 µg/mL; MIC [23]: 0.2 µg/mL
CC[C@H]1OC(=O)[C@H](C)C(=O)[C@H](C)[C@@H](O[C@@H]2O[C@H](C)C[C@H](N(C)CCF)[C@H]2O)[C@](C)(OCC=Cc2cnc3ccccc3c2)C[C@@H](C)C(=O)[C@H](C)[C@H]2NC(=O)O[C@@]21C [Example 7, Compound of Formula (II); R is -CH2CH=CH-(3-quinolyl), R^p is H, W is absent, R^w is H, R^1 is CH2CH2F, R^2 is CH3]	> 100	0.05	> 100	> 100	0.39	8	0.39	0.05	1.56	0.39	> 100	> 100	0.2	0.1	0.05	0.1	0.1	0.2	0.25	16	MIC [17]: 0.03 µg/mL; MIC [18]: 0.03 µg/mL; MIC [19]: 0.05 µg/mL; MIC [20]: 0.01 µg/mL; MIC [21]: 12.5 µg/mL; MIC [22]: 0.01 µg/mL; MIC [23]: 0.39 µg/mL
